According to article PMC5218480 (PLoS ONE, 2017):

Tested on: MV-4-11 cells
Test: Gene expression microarray analysis (Affymetrix PrimeView) and GSEA
Type: cell-based, human
Set-up: RFU PODN (11730768_x_at) / Fold change /veh PODN (11730768_x_at) / RFU LINC00158 (11744669_a_at) / Fold change /veh LINC00158 (11744669_a_at) / RFU DUSP10 (11751237_a_at) / Fold change /veh DUSP10 (11751237_a_at) / RFU ID3 (11757404_x_at) / Fold change /veh ID3 (11757404_x_at) / RFU PLEKHG5 (11737974_s_at) / Fold change /veh PLEKHG5 (11737974_s_at) / RFU LRRC4B (11730491_at) / Fold change /veh LRRC4B (11730491_at) / RFU GIMAP4 (11747438_a_at) / Fold change /veh GIMAP4 (11747438_a_at) / RFU KRT8 (11758183_x_at) / Fold change /veh KRT8 (11758183_x_at) / RFU CNN1 (11734310_a_at) / Fold change /veh CNN1 (11734310_a_at) / RFU VPS37D (11726825_at) / Fold change /veh VPS37D (11726825_at) / RFU C10orf10 (11716522_x_at) / Fold change /veh C10orf10 (11716522_x_at) / RFU KIR2DL2 /// KIR2DL4 /// KIR2DL5A /// KIR2DL5B /// KIR2DS1 /// KIR2DS2 /// KIR2DS3 /// KIR2DS4 /// KIR3DL3 /// KIR3DL3 /// KIR3DS1 (11738374_at) / Fold change /veh KIR2DL2 /// KIR2DL4 /// KIR2DL5A /// KIR2DL5B /// KIR2DS1 /// KIR2DS2 /// KIR2DS3 /// KIR2DS4 /// KIR3DL3 /// KIR3DL3 /// KIR3DS1 (11738374_at) / RFU C1QL1 (11718748_at) / Fold change /veh C1QL1 (11718748_at) / RFU TMPRSS4 (11747572_a_at) / Fold change /veh TMPRSS4 (11747572_a_at) / RFU HAMP (11756126_x_at) / Fold change /veh HAMP (11756126_x_at) / RFU RNFT2 (11725882_a_at) / Fold change /veh RNFT2 (11725882_a_at) / RFU NR4A2 (11747474_a_at) / Fold change /veh NR4A2 (11747474_a_at) / RFU ABCC12 (11746883_a_at) / Fold change /veh ABCC12 (11746883_a_at) / RFU TMEM136 (11760407_x_at) / Fold change /veh TMEM136 (11760407_x_at) / RFU CLDN22 /// WWC2 (11732394_at) / Fold change /veh CLDN22 /// WWC2 (11732394_at) / RFU HLA-DPB1 (11760878_x_at) / Fold change /veh HLA-DPB1 (11760878_x_at) / RFU SPINT1 (11716480_a_at) / Fold change /veh SPINT1 (11716480_a_at) / RFU GAP43 (11754022_s_at) / Fold change /veh GAP43 (11754022_s_at) / RFU A4GNT (11735810_at) / Fold change /veh A4GNT (11735810_at) / RFU PRB3 (11715151_x_at) / Fold change /veh PRB3 (11715151_x_at) / RFU TUBB4B (11761932_at) / Fold change /veh TUBB4B (11761932_at) / RFU CAPN14 (11732068_a_at) / Fold change /veh CAPN14 (11732068_a_at) / RFU TMCC2 (11721928_a_at) / Fold change /veh TMCC2 (11721928_a_at) / RFU IRGQ (11745062_a_at) / Fold change /veh IRGQ (11745062_a_at) / RFU FAM174B (11720279_a_at) / Fold change /veh FAM174B (11720279_a_at) / RFU TMPRSS4 (11748680_a_at) / Fold change /veh TMPRSS4 (11748680_a_at) / RFU FAM212B (11763350_a_at) / Fold change /veh FAM212B (11763350_a_at) / RFU PLEKHG5 (11743358_a_at) / Fold change /veh PLEKHG5 (11743358_a_at) / RFU ZSCAN30 (11745921_a_at) / Fold change /veh ZSCAN30 (11745921_a_at) / RFU CMKLR1 (11741424_a_at) / Fold change /veh CMKLR1 (11741424_a_at) / RFU LOC101060620 /// MAPK8IP1 (11723275_at) / Fold change /veh LOC101060620 /// MAPK8IP1 (11723275_at) / RFU SPTSSB (11747773_x_at) / Fold change /veh SPTSSB (11747773_x_at) / RFU PRSS12 (11739890_at) / Fold change /veh PRSS12 (11739890_at) / RFU BIN1 (11741810_x_at) / Fold change /veh BIN1 (11741810_x_at) / RFU WNT11 (11732464_a_at) / Fold change /veh WNT11 (11732464_a_at) / RFU C10orf10 (11716521_a_at) / Fold change /veh C10orf10 (11716521_a_at) / RFU C5orf56 (11738089_at) / Fold change /veh C5orf56 (11738089_at) / RFU CYB561 (11721691_x_at) / Fold change /veh CYB561 (11721691_x_at) / RFU ANKRD19P (11752326_a_at) / Fold change /veh ANKRD19P (11752326_a_at) / RFU OR2T12 /// OR2T33 /// OR2T8 (11738714_s_at) / Fold change /veh OR2T12 /// OR2T33 /// OR2T8 (11738714_s_at) / RFU VCAN (11748164_a_at) / Fold change /veh VCAN (11748164_a_at) / RFU JSRP1 (11732532_at) / Fold change /veh JSRP1 (11732532_at) / RFU KRTAP10-11 (11738290_x_at) / Fold change /veh KRTAP10-11 (11738290_x_at) / RFU MYO3A (11730013_a_at) / Fold change /veh MYO3A (11730013_a_at) / RFU EBF3 (11725865_a_at) / Fold change /veh EBF3 (11725865_a_at) / RFU CAMK2N1 (11719241_x_at) / Fold change /veh CAMK2N1 (11719241_x_at) / RFU C5orf56 (11738088_a_at) / Fold change /veh C5orf56 (11738088_a_at) / RFU OLFML3 (11715873_a_at) / Fold change /veh OLFML3 (11715873_a_at) / RFU LOC100653217 /// NTM (11731650_a_at) / Fold change /veh LOC100653217 /// NTM (11731650_a_at) / RFU MAPK11 (11762145_a_at) / Fold change /veh MAPK11 (11762145_a_at) / RFU FIZ1 (11724087_x_at) / Fold change /veh FIZ1 (11724087_x_at) / RFU OASL (11726364_x_at) / Fold change /veh OASL (11726364_x_at) / RFU SOX15 (11748057_x_at) / Fold change /veh SOX15 (11748057_x_at) / RFU CD79A (11719716_a_at) / Fold change /veh CD79A (11719716_a_at) / RFU HIST1H1D (11736915_at) / Fold change /veh HIST1H1D (11736915_at) / RFU CASKIN2 (11723855_a_at) / Fold change /veh CASKIN2 (11723855_a_at) / RFU LOC730098 (11760151_x_at) / Fold change /veh LOC730098 (11760151_x_at) / RFU OR4N2 (11742367_at) / Fold change /veh OR4N2 (11742367_at) / RFU PRRT2 (11749266_a_at) / Fold change /veh PRRT2 (11749266_a_at) / RFU SNX32 (11753110_a_at) / Fold change /veh SNX32 (11753110_a_at) / RFU CDHR5 (11726645_a_at) / Fold change /veh CDHR5 (11726645_a_at) / RFU RCAN1 (11760418_a_at) / Fold change /veh RCAN1 (11760418_a_at) / RFU FAM167A (11723789_a_at) / Fold change /veh FAM167A (11723789_a_at) / RFU FAM26E (11764081_at) / Fold change /veh FAM26E (11764081_at) / RFU ISYNA1 (11749810_s_at) / Fold change /veh ISYNA1 (11749810_s_at) / RFU ACY1 (11761880_at) / Fold change /veh ACY1 (11761880_at) / RFU 11764098_at / Fold change /veh 11764098_at / RFU SAMD14 (11745864_x_at) / Fold change /veh SAMD14 (11745864_x_at) / RFU NPB (11741838_a_at) / Fold change /veh NPB (11741838_a_at) / RFU TMPRSS6 (11731388_a_at) / Fold change /veh TMPRSS6 (11731388_a_at) / RFU KRTAP10-2 (11738614_at) / Fold change /veh KRTAP10-2 (11738614_at) / RFU ARHGAP8 /// PRR5-ARHGAP8 (11727945_x_at) / Fold change /veh ARHGAP8 /// PRR5-ARHGAP8 (11727945_x_at) / RFU KRTAP5-7 /// NADSYN1 (11734609_at) / Fold change /veh KRTAP5-7 /// NADSYN1 (11734609_at) / RFU RASL12 (11751679_a_at) / Fold change /veh RASL12 (11751679_a_at) / RFU CDKN2B (11736163_a_at) / Fold change /veh CDKN2B (11736163_a_at) / RFU PRF1 (11729649_at) / Fold change /veh PRF1 (11729649_at) / RFU, ZNF638 /// ZNF638-IT1 / Fold change vs veh, ZNF638 /// ZNF638-IT1 / RFU, PANK3 / Fold change vs veh, PANK3 / RFU, SH3YL1 / Fold change vs veh, SH3YL1 / RFU, ZEB2 / Fold change vs veh, ZEB2 / RFU, NRIP1 / Fold change vs veh, NRIP1 / RFU, PTTG1IP / Fold change vs veh, PTTG1IP / RFU, CAPN2 / Fold change vs veh, CAPN2 / RFU, MED14 / Fold change vs veh, MED14 / RFU, SNORA58 / Fold change vs veh, SNORA58 / RFU, C1orf63 / Fold change vs veh, C1orf63 / RFU, LRRFIP1 / Fold change vs veh, LRRFIP1 / RFU, NDUFAF7 / Fold change vs veh, NDUFAF7 / RFU, SLC12A2 / Fold change vs veh, SLC12A2 / RFU, IBTK / Fold change vs veh, IBTK / RFU, ESF1 / Fold change vs veh, ESF1 / Fold change vs veh, TMEM50B / RFU, TAOK1 / Fold change vs veh, TAOK1 / RFU, ACBD3 / Fold change vs veh, ACBD3 / RFU, TMA16 / Fold change vs veh, TMA16 / RFU, RWDD3 / Fold change vs veh, RWDD3 / RFU, BCAT1 / Fold change vs veh, BCAT1 / RFU, EDEM3 / Fold change vs veh, EDEM3 / RFU, TMEM33 / Fold change vs veh, TMEM33 / RFU, WDR75 / Fold change vs veh, WDR75 / RFU, AHCTF1 / Fold change vs veh, AHCTF1 / RFU, TFRC / Fold change vs veh, TFRC / RFU, ZDHHC17 / Fold change vs veh, ZDHHC17 / RFU, NOM1 / Fold change vs veh, NOM1 / RFU, ARL8B / Fold change vs veh, ARL8B / RFU, ZBTB11 / Fold change vs veh, ZBTB11 / RFU, TAMM41 / Fold change vs veh, TAMM41 / RFU, KIAA1704 /// LOC100996395 / Fold change vs veh, KIAA1704 /// LOC100996395 / RFU, ING1 / Fold change vs veh, ING1 / RFU, TRMT61B / Fold change vs veh, TRMT61B / RFU, FUBP3 / Fold change vs veh, FUBP3 / RFU, TP53 / Fold change vs veh, TP53 / RFU, TNKS2 / Fold change vs veh, TNKS2 / RFU, ZFP14 / Fold change vs veh, ZFP14 / RFU, ACTR2 / Fold change vs veh, ACTR2 / RFU, PPP3R1 / Fold change vs veh, PPP3R1 / RFU, PIK3R1 / Fold change vs veh, PIK3R1 / RFU, HNRNPA1 / Fold change vs veh, HNRNPA1 / RFU, RNF170 / Fold change vs veh, RNF170 / RFU, ZNF28 / Fold change vs veh, ZNF28 / RFU, RNGTT / Fold change vs veh, RNGTT / RFU, OGT / Fold change vs veh, OGT / RFU, BRD1 / Fold change vs veh, BRD1 / RFU, MARS / Fold change vs veh, MARS / RFU, ZNF655 / Fold change vs veh, ZNF655 / RFU, FAHD1 / Fold change vs veh, FAHD1 / RFU, BDP1 / Fold change vs veh, BDP1 / RFU, LRRCC1 / Fold change vs veh, LRRCC1 / RFU, ARID1A / Fold change vs veh, ARID1A / RFU, ZNF146 / Fold change vs veh, ZNF146 / RFU, ZNF330 / Fold change vs veh, ZNF330 / RFU, GPN3 / Fold change vs veh, GPN3 / RFU, C9orf123 / Fold change vs veh, C9orf123 / RFU, N4BP2L2 / Fold change vs veh, N4BP2L2 / RFU, ARFIP1 / Fold change vs veh, ARFIP1 / RFU, FAM179B / Fold change vs veh, FAM179B / RFU, BCL10 / Fold change vs veh, BCL10 / RFU, UHRF1BP1L / Fold change vs veh, UHRF1BP1L / RFU, BET1 / Fold change vs veh, BET1 / RFU, CNOT2 / Fold change vs veh, CNOT2 / RFU, ZNF268 / Fold change vs veh, ZNF268 / Fold change vs veh, ZNF507 / RFU, DGCR2 / Fold change vs veh, DGCR2 / RFU, WDSUB1 / Fold change vs veh, WDSUB1 / Fold change vs veh, HSP90B1 /// MIR3652 / RFU, ADSS / Fold change vs veh, ADSS / RFU, GK / Fold change vs veh, GK / RFU, ZNF148 / Fold change vs veh, ZNF148 / RFU, TAF9 / Fold change vs veh, TAF9 / RFU, SLC1A5 / Fold change vs veh, SLC1A5 / RFU, SLMO2 / Fold change vs veh, SLMO2 / RFU, ABCC4 / Fold change vs veh, ABCC4 / RFU, LOC101060439 /// RAP1B / Fold change vs veh, LOC101060439 /// RAP1B / RFU, RFX7 / Fold change vs veh, RFX7 / RFU, GTPBP10 / Fold change vs veh, GTPBP10 / RFU, CNEP1R1 / Fold change vs veh, CNEP1R1 / RFU, BIVM-ERCC5 /// ERCC5 / Fold change vs veh, BIVM-ERCC5 /// ERCC5 / RFU, ILF3 / Fold change vs veh, ILF3 / RFU 11762660_at / Fold change /veh 11762660_at / RFU VCAN (11757783_s_at) / Fold change /veh VCAN (11757783_s_at) / RFU DDX43 (11728927_at) / Fold change /veh DDX43 (11728927_at) / RFU KRT8 (11758188_x_at) / Fold change /veh KRT8 (11758188_x_at) / RFU NKD1 (11759106_at) / Fold change /veh NKD1 (11759106_at) / RFU SRD5A1 (11742802_a_at) / Fold change /veh SRD5A1 (11742802_a_at) / RFU TPSAB1 /// TPSB2 (11721975_s_at) / Fold change /veh TPSAB1 /// TPSB2 (11721975_s_at) / RFU GSTM3 (11746129_a_at) / Fold change /veh GSTM3 (11746129_a_at) / RFU IL23R (11737362_x_at) / Fold change /veh IL23R (11737362_x_at) / RFU TMEM51 (11727254_a_at) / Fold change /veh TMEM51 (11727254_a_at) / RFU PIWIL2 (11732686_x_at) / Fold change /veh PIWIL2 (11732686_x_at) / RFU ORM1 (11744905_x_at) / Fold change /veh ORM1 (11744905_x_at) / RFU CCDC152 (11743942_at) / Fold change /veh CCDC152 (11743942_at) / RFU ECM1 (11717891_a_at) / Fold change /veh ECM1 (11717891_a_at) / RFU IL23R (11748794_a_at) / Fold change /veh IL23R (11748794_a_at) / RFU TNFAIP8L3 (11732012_x_at) / Fold change /veh TNFAIP8L3 (11732012_x_at) / RFU MBOAT4 (11741988_at) / Fold change /veh MBOAT4 (11741988_at) / RFU 11764193_at / Fold change /veh 11764193_at / RFU TMEM53 (11763286_at) / Fold change /veh TMEM53 (11763286_at) / RFU MAGEB2 (11727129_at) / Fold change /veh MAGEB2 (11727129_at) / RFU TMEM200A (11744735_a_at) / Fold change /veh TMEM200A (11744735_a_at) / RFU CCDC152 (11751479_a_at) / Fold change /veh CCDC152 (11751479_a_at) / RFU FAM211A (11726209_a_at) / Fold change /veh FAM211A (11726209_a_at) / RFU RGS16 (11746705_a_at) / Fold change /veh RGS16 (11746705_a_at) / RFU VCAN (11755009_s_at) / Fold change /veh VCAN (11755009_s_at) / RFU RHOB (11743442_s_at) / Fold change /veh RHOB (11743442_s_at) / RFU RGS16 (11720943_a_at) / Fold change /veh RGS16 (11720943_a_at) / RFU RGS16 (11720944_at) / Fold change /veh RGS16 (11720944_at) / RFU, VPS4B / Fold change vs veh, VPS4B / RFU, CREB1 / Fold change vs veh, CREB1 / RFU, DNAJC13 / Fold change vs veh, DNAJC13 / RFU, GNAQ / Fold change vs veh, GNAQ / RFU, CDK5R1 / Fold change vs veh, CDK5R1 / RFU, ZRANB3 / Fold change vs veh, ZRANB3 / RFU, CUL4A / Fold change vs veh, CUL4A / RFU, CCNY / Fold change vs veh, CCNY / RFU, UFL1 / Fold change vs veh, UFL1 / RFU, COG3 / Fold change vs veh, COG3 / RFU, DIAPH2 / Fold change vs veh, DIAPH2 / RFU, SKA2 / Fold change vs veh, SKA2 / RFU, AFF3 / Fold change vs veh, AFF3 / RFU, LMF1 / Fold change vs veh, LMF1 / RFU, IPO11 / Fold change vs veh, IPO11 / RFU, DFFB / Fold change vs veh, DFFB / RFU, FOXP1 / Fold change vs veh, FOXP1 / RFU, CARD8 / Fold change vs veh, CARD8 / RFU, STRN3 / Fold change vs veh, STRN3 / RFU, ADK / Fold change vs veh, ADK / RFU, RASSF2 / Fold change vs veh, RASSF2 / RFU, WIPF1 / Fold change vs veh, WIPF1 / RFU, LARP1B / Fold change vs veh, LARP1B / RFU, RASA1 / Fold change vs veh, RASA1 / RFU, RB1 / Fold change vs veh, RB1 / RFU, PPFIA1 / Fold change vs veh, PPFIA1 / RFU, MAT2A / Fold change vs veh, MAT2A / RFU, CCT5 / Fold change vs veh, CCT5 / RFU, WDR92 / Fold change vs veh, WDR92 / RFU, CUX1 / Fold change vs veh, CUX1 / RFU, TTC7A / Fold change vs veh, TTC7A / RFU, TMEM135 / Fold change vs veh, TMEM135 / RFU, DEPTOR / Fold change vs veh, DEPTOR / RFU, CPM / Fold change vs veh, CPM / RFU, DNAJB6 / Fold change vs veh, DNAJB6 / RFU, CACNA2D3 / Fold change vs veh, CACNA2D3 / RFU, DTX4 / Fold change vs veh, DTX4 / RFU, TFCP2 / Fold change vs veh, TFCP2 / RFU, GMCL1 /// GMCL1P1 / Fold change vs veh, GMCL1 /// GMCL1P1 / RFU, AEBP2 / Fold change vs veh, AEBP2 / RFU, SNHG1 /// SNORD22 /// SNORD25 /// SNORD26 /// SNORD27 /// SNORD28 /// SNORD29 /// SNORD31 / Fold change vs veh, SNHG1 /// SNORD22 /// SNORD25 /// SNORD26 /// SNORD27 /// SNORD28 /// SNORD29 /// SNORD31 / Fold change (Aza/veh), C12orf56 (ProbeSet 11735607_a_at) / Fold change (ACY-1035/veh), C12orf56 (ProbeSet 11735607_a_at) / Fold change (Aza/veh), FGFR1OP (ProbeSet 11751329_s_at) / Fold change (ACY-1035/veh), FGFR1OP (ProbeSet 11751329_s_at) / Fold change (Aza/veh), VPS36 (ProbeSet 11739960_a_at) / Fold change (ACY-1035/veh), VPS36 (ProbeSet 11739960_a_at) / RFU SYPL1 (11715823_x_at) / Fold change /veh SYPL1 (11715823_x_at) / RFU IGFBP7 (11715501_s_at) / Fold change /veh IGFBP7 (11715501_s_at) / RFU REEP3 (11722064_at) / Fold change /veh REEP3 (11722064_at) / RFU IGLL1 (11728026_x_at) / Fold change /veh IGLL1 (11728026_x_at): dose or concentration left out as unconfirmed
Conditions: ProbeSet 11734782_x_at; LIST D

Nc1ncn([C@@H]2O[C@H](CO)[C@@H](O)[C@H]2O)c(=O)n1 [azacitidine]
RFU, WDR92: 49.30 RFU
